Active and inactive are the calls of the source. No cut-off for these calls is given here.
What was measured:
[1] = biological target: Chymotrypsin-like elastase family member 1 (Sus scrofa, UniProt P00772); assay: Inhibition of pig pancreatic elastase preincubated for 15 mins by spectrophotometry
Chymotrypsinogen A = Chymotrypsinogen A (Bos taurus, UniProt P00766); assay: Inhibition of bovine pancreas alpha-chymotrypsin preincubated for 10 mins by spectrophotometry
Trypsin (Sus scrofa) = Trypsin (Sus scrofa) (UniProt P00761); assay: Inhibition of pig pancreas trypsin at 10 uM preincubated for 10 mins by spectrophotometry
Trypsin (Sus scrofa), sequence (P00761 whole entry): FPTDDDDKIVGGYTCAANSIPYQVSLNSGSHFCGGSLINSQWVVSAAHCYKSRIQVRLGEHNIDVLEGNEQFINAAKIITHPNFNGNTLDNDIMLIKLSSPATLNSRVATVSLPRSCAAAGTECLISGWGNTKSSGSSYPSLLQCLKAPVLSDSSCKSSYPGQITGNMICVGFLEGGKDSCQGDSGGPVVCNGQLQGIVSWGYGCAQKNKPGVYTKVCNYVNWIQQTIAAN

Chymotrypsin-like elastase family member 1, sequence (P00772 whole entry): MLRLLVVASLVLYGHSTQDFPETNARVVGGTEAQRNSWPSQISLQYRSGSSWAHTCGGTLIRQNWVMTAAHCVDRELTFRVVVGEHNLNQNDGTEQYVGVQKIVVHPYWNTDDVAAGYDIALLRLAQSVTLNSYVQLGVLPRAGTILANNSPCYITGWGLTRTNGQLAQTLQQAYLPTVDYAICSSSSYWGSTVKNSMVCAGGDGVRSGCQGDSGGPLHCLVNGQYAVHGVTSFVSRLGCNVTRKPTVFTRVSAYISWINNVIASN

In the case of C/C=C1\NC(=O)[C@@H](NC(=O)[C@@H](NC(=O)[C@H](C)NC(=O)CCC)[C@@H](C)O)[C@@H](C)OC(=O)[C@H](C(C)C)NC(=O)[C@H](Cc2ccc(O)cc2)N(C)C(=O)[C@H](Cc2ccccc2)N2C(=O)[C@H](CC[C@H]2O)NC1=O [MOLASSAMIDE], the IC50 [1] is reported as 32 nM, the IC50 (Chymotrypsinogen A) is reported as 234 nM and the inhibition (Trypsin (Sus scrofa)) is reported as “inactive”.

Source: ChEMBL document CHEMBL1154839, “Molassamide, a depsipeptide serine protease inhibitor from the marine cyanobacterium Dichothrix utahensis” (J Nat Prod, 2010)
